Data taken from the supplement of paper PMC10627819.

How the values were obtained:
[1] = tested on: S. aureus DSM 20231; test: Bliss interaction score (quartile over a dose matrix) (fitness difference); higher = more antagonism (negative = synergy)
Procedure, shortened: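 Fitness is OD595 at stationary-phase entry relative to the plate's robust no-drug mean, capped at 1. Single-drug fitness was inferred from combinations. The Bliss score is observed minus product-expected fitness, summarised by quartiles over technical, biological and donor/recipient replicates.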

[2] = tested on: S. aureus DSM 20231; test: fitness (endpoint OD595 vs no drug) (fraction); higher = more growth
Procedure, shortened: (§1)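 Fitness was measured as bacterial growth in 384-well plates inoculated at OD595 0.01 (30 µl, or 55 µl for S. pneumoniae). Media were TSB, LB Lennox or CY, at 37 °C. OD595 was read every 30 min for 14 h and background-subtracted against the first reading. Fitness is OD595 at the transition into stationary phase divided by the robust mean of no-drug control wells, capped at 1.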

[3] = tested on: S. aureus Newman; test: as above
Procedure, shortened: as §1

[4] = tested on: S. pneumoniae D39V; test: as above
Procedure, shortened: as §1
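Wherever Bliss interaction score (quartile over a dose matrix) is given: first quartile when negative (synergy) and third quartile when positive (antagonism).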

CC1(C)S[C@@H]2[C@H](NC(=O)[C@H](N)c3ccc(O)cc3)C(=O)N2[C@H]1C(=O)O [Amoxicillin] + Cc1ccc(-c2cc(C(F)(F)F)nn2-c2ccc(S(N)(=O)=O)cc2)cc1 [Celecoxib]
Conditions | Bliss interaction score
[1] | 0.185

CC1(C)S[C@@H]2[C@H](NC(=O)[C@H](N)c3ccc(O)cc3)C(=O)N2[C@H]1C(=O)O [Amoxicillin] + N[C@@H]1CONC1=O [Cycloserine D]
fitness
Conditions | first compound 0.0625 µg/mL | first compound 0.125 µg/mL | first compound 0.25 µg/mL | first compound 0.5 µg/mL
[2], partner 0.375 µg/mL | 0.579 | 0.382 | 0.0345 | 0.0039
[2], partner 0.75 µg/mL | 0.562 | 0.368 | 0.0204 | 0.0079
[2], partner 1.5 µg/mL | 0.554 | – | 0.0264 | 0.0072
[3], partner 0.375 µg/mL | 0.889 | 0.875 | 0.811 | –
[3], partner 0.75 µg/mL | 0.879 | 0.91 | 0.821 | –
[3], partner 1.5 µg/mL | 0.861 | 0.851 | 0.8 | –

CC1(C)S[C@@H]2[C@H](NC(=O)[C@H](N)c3ccc(O)cc3)C(=O)N2[C@H]1C(=O)O [Amoxicillin] + O=C(O)[C@H]1/C(=C/CO)O[C@@H]2CC(=O)N21 [Clavulanic acid]
fitness, one replicate
Conditions | partner 0.03125 µg/mL | partner 0.0625 µg/mL | partner 0.125 µg/mL | partner 0.5 µg/mL | partner 1 µg/mL | partner 2 µg/mL
[3], first compound 0.0625 µg/mL | 0.895 | 0.816 | 0.768 | – | – | –
[3], first compound 0.125 µg/mL | 0.831 | 0.809 | 0.639 | – | – | –
[3], first compound 0.25 µg/mL | 0.717 | 0.628 | 0.606 | – | – | –
[4], first compound 0.006 µg/mL | – | – | – | 0.391 | 0.315 | 0.242

fitness, [4]
Conditions | first compound 0.0008 µg/mL | first compound 0.0015 µg/mL | first compound 0.003 µg/mL
partner 0.5 µg/mL | 0.913 | 0.945 | 0.914
partner 1 µg/mL | 0.886 | 0.87 | 0.852
partner 2 µg/mL | 0.812 | 0.819 | 0.713

CC1(C)S[C@@H]2[C@H](NC(=O)[C@H](N)c3ccc(O)cc3)C(=O)N2[C@H]1C(=O)O [Amoxicillin] + O=C(O)c1cc(-c2ccc(F)cc2F)ccc1O [Diflunisal]
Conditions | Bliss interaction score
[1] | 0.204

CO/N=C(\C(=O)N[C@@H]1C(=O)N2C(C(=O)[O-])=C(C[N+]3(C)CCCC3)CS[C@H]12)c1csc(N)n1 [Cefepime] + CC1(C)S[C@@H]2[C@H](NC(=O)Cc3ccccc3)C(=O)N2[C@H]1C(=O)O [Penicillin G]
fitness, [3]
Conditions | first compound 0.125 µg/mL | first compound 0.25 µg/mL | first compound 0.5 µg/mL
partner 0.0195 µg/mL | 0.868 | 0.801 | 0.712
partner 0.039 µg/mL | 0.895 | 0.811 | 0.695
partner 0.078 µg/mL | 0.871 | 0.773 | 0.704

CO/N=C(\C(=O)N[C@@H]1C(=O)N2C(C(=O)[O-])=C(C[N+]3(C)CCCC3)CS[C@H]12)c1csc(N)n1 [Cefepime] + CO[C@@]12[C@H](COC(N)=O)C3=C(C(=O)C(C)=C(N)C3=O)N1C[C@@H]1N[C@@H]12 [Mitomycin C]
Conditions | fitness
[2], first compound 0.125 µg/mL, partner 0.0156 µg/mL | 0.685
[2], first compound 0.125 µg/mL, partner 0.0312 µg/mL | 0.653
[2], first compound 0.125 µg/mL, partner 0.0625 µg/mL | 0.568
[2], first compound 0.25 µg/mL, partner 0.0156 µg/mL | 0.63
[2], first compound 0.25 µg/mL, partner 0.0312 µg/mL | 0.617
[2], first compound 0.25 µg/mL, partner 0.0625 µg/mL | 0.578
[2], first compound 0.5 µg/mL, partner 0.0156 µg/mL | 0.632
[2], first compound 0.5 µg/mL, partner 0.0312 µg/mL | 0.572
[2], first compound 0.5 µg/mL, partner 0.0625 µg/mL | 0.549
[3], first compound 0.125 µg/mL, partner 0.0156 µg/mL | 0.749
[3], first compound 0.125 µg/mL, partner 0.0312 µg/mL | 0.661
[3], first compound 0.125 µg/mL, partner 0.0625 µg/mL | 0.556
[3], first compound 0.25 µg/mL, partner 0.0156 µg/mL | 0.661
[3], first compound 0.25 µg/mL, partner 0.0312 µg/mL | 0.592
[3], first compound 0.25 µg/mL, partner 0.0625 µg/mL | 0.483
[3], first compound 0.5 µg/mL, partner 0.0156 µg/mL | 0.621
[3], first compound 0.5 µg/mL, partner 0.0312 µg/mL | 0.578
[3], first compound 0.5 µg/mL, partner 0.0625 µg/mL | 0.522
[4], first compound 0.007 µg/mL, partner 0.002 µg/mL | 0.88
[4], first compound 0.007 µg/mL, partner 0.004 µg/mL | 0.803
[4], first compound 0.007 µg/mL, partner 0.008 µg/mL | 0.68
[4], first compound 0.0078 µg/mL, partner 0.001075 µg/mL | 0.976
[4], first compound 0.0078 µg/mL, partner 0.00215 µg/mL | 0.924
[4], first compound 0.0078 µg/mL, partner 0.0043 µg/mL | 0.867
[4], first compound 0.014 µg/mL, partner 0.002 µg/mL | 0.859
[4], first compound 0.014 µg/mL, partner 0.004 µg/mL | 0.819
[4], first compound 0.014 µg/mL, partner 0.008 µg/mL | 0.669
[4], first compound 0.0155 µg/mL, partner 0.001075 µg/mL | 0.98
[4], first compound 0.0155 µg/mL, partner 0.00215 µg/mL | 0.931
[4], first compound 0.0155 µg/mL, partner 0.0043 µg/mL | 0.857
[4], first compound 0.028 µg/mL, partner 0.002 µg/mL | 0.716
[4], first compound 0.028 µg/mL, partner 0.004 µg/mL | 0.7
[4], first compound 0.028 µg/mL, partner 0.008 µg/mL | 0.628
[4], first compound 0.031 µg/mL, partner 0.001075 µg/mL | 0.708
[4], first compound 0.031 µg/mL, partner 0.00215 µg/mL | 0.647
[4], first compound 0.031 µg/mL, partner 0.0043 µg/mL | 0.63

CCCCCCCCCC(=O)N[C@@H](Cc1c[nH]c2ccccc12)C(=O)N[C@H](CC(N)=O)C(=O)N[C@@H](CC(=O)O)C(=O)N[C@@H]1C(=O)NCC(=O)N[C@@H](CCCN)C(=O)N[C@@H](CC(=O)O)C(=O)N[C@H](C)C(=O)N[C@@H](CC(=O)O)C(=O)NCC(=O)N[C@H](CO)C(=O)N[C@@H]([C@H](C)CC(=O)O)C(=O)N[C@@H](CC(=O)c2ccccc2N)C(=O)O[C@@H]1C [Daptomycin] + CC1(C)S[C@@H]2[C@H](NC(=O)Cc3ccccc3)C(=O)N2[C@H]1C(=O)O [Penicillin G]
fitness, [3]
Conditions | first compound 0.125 µg/mL | first compound 0.25 µg/mL | first compound 0.5 µg/mL
partner 0.0195 µg/mL | 0.926 | 0.958 | 0.925
partner 0.039 µg/mL | 0.939 | 0.942 | 0.972
partner 0.078 µg/mL | 0.961 | 0.957 | 0.915
